According to US5352462A, “Anti-inflammatory factor, method of isolation, and use” (Stolle Research & Development Corporation, priority 1992, dated 1994):

How the values were obtained:
[1] = test system: superoxide production by neutrophils; experiment: Superoxide assay, cytochrome C reduction by stimulated neutrophils; type: cell-based, human
Description: Neutrophils from healthy donors were purified by dextran sedimentation followed by hypotonic lysis and Histopaque centrifugation. Except for the dextran sedimentation step, which was performed at room temperature, the cells were kept at 4° C. throughout the isolation procedure. […] After isolation, neutrophils were resuspended at a final concentration of 2×10^6 cells/ml in phosphate buffered saline (PBS). […] After washing, neutrophils were incubated in the dark at 4° C. for 30 minutes with saturating concentrations of fluorescein-conjugated murine anti-human CD18, human CD11 b, IGG coated microbeads (Simply Cellular™ microbeads) or the murine negative control antibody.
The reduction of cytochrome C by activated neutrophils was measured using a spectrophotometer (Hitachi U2000) at 550 nm. Briefly, sample was added to two cuvettes and one cuvette was used as a reference. The latter contained superoxide dismutase (superoxide scavenger). […] Superoxide production was measured for 3 min.

[2] = test system: circulating neutrophils and lymphocytes; experiment: Circulating leucocytes after i.v. administration; type: in vivo, rat
Description: Two experiments were done. In the first, the MAIF preparation was administered intravenously at a dose of 40 mg/rat to one group of 6 animals and a control group was injected with saline. Blood samples were obtained at baseline, 1, 4, and 24 hours after treatment.
A further dose-response study was carried out in which a group of rats were injected intravenously with saline, 5, 10 or 20 mg of the MAIF preparation. Blood from each rat had been taken 7 days previously to provide baseline values and was taken again 4 hours after the injection of MAIF. Included on the graph are the results obtained from the sample taken 4 hours after the administration of 40 mg the MAIF preparation (see FIG. 31).
Data were also obtained pertaining to the effect of three other cell-targeted, anti-inflammatory/immunomodulatory agents on circulating leucocytes in the rat. […] The temporal relationship between drug administration and effect is somewhat different. […] The effects of the anti-inflammatory factor would appear to closely parallel the action of methyl-prednisolone.

[3] = test system: neutrophil adhesion to venular endothelium; experiment: Intravital microscopy of PAF-exposed rat mesenteric venules; type: in vivo; conditions: PAF superfusion 100 nM, 60 min
Description: The temperature of the pedestal was maintained at 37° C. with a constant temperature circulator (Fisher Scientific, model 80).

[4] = test system: carrageenan-induced footpad edema; experiment: Quantitative rat paw edema test with 125I-HSA; type: in vivo; conditions: aspirin 200 mg/kg oral, 30 min prior
Description: Peak I from the G-10 column, supplied by Stolle Milk Biologics International, was prepared according to the methods described in U.S. Pat. No. 4,956,349. Lactose, obtained from commercial sources, was used as placebo. Aspirin was used as a positive control. Aspirin was dissolved in water and given orally by gastric gavage at the ratio of 200 mg per kilogram, a dose known to be active in the assay. […] The footpad assay was modified by using isotopically labeled human serum albumin (^125 I-HSA) that localizes in the carrageenan-induced lesion in direct proportion to the volume of the exudate. By determining the total radioactive count in the footpad and comparing this to the counts in a known volume of plasma from the injected animal, a direct measurement of edema in microliters of plasma equivalents is obtained. ^125 I-HSA was injected intravenously at a dose of 1.0 microcurie per rat. Female Dark Agouti rats were used. […]
To conduct the carrageenan footpad assay, 0.1 ml of 2% carrageenan was injected subcutaneously into each hind foot pad of an anesthetized rat. […] Both hind feet were then removed and the levels of radioactivity in each foot and in the 200 μl plasma standard were measured in an automated gamma counter. From these measurements the volume of edema in each foot was calculated and expressed in microliters. […]

[5] = test system: reverse passive Arthus reaction; experiment: Reverse passive Arthus reaction; type: in vivo, rat; conditions: 20 mg i.v.
Description: The possibility that the anti-inflammatory factor might affect neutrophil involvement was investigated by evaluating the ability of the material to modulate the reverse passive Arthus reaction (RPA). This immune complex-induced response is primarily neutrophil mediated and agents which affect the development of the reaction do so via an effect on these cells. To induce the RPA, rats were injected intradermally with rabbit antibody to ovalbumin and intravenously with native ovalbumin. Ovalbumin/ovalbumin-antibody immune complexes form in and around the dermal blood vessel walls, host neutrophils bind to the Fc portion of the antibody and an intense inflammatory reaction is initiated. It should be noted that, although the response is initiated by immune-complexes, it takes place independently of the host's immune system.
Three parameters are used to quantify the RPA. These are, (1) edema--measured using the accumulation of ^125 I-HSA, (2) hemorrhage--assessed by in vivo pre-labelling RBC's with ^59 Fe and (3) neutrophil accumulation--measured by determining tissue levels of the neutrophils specific enzyme myeloperoxidase (MPO). These assays are known to those of ordinary skill in the art.
Eighteen rats were divided into three groups of six. Rabbit antiovalbumin (40 μl) was injected intradermally at four sites on the back of each animal and 2 mg of ovalbumin injected intravenously immediately afterwards. One group of animals received no other treatment and served as controls. The second group were injected intravenously with 20 mg of a lactose preparation, while the final group were injected intravenously with 20 mg of a purified preparation of MAIF. Both lactose and MAIF preparation were administered with the ovalbumin. The severity of the reaction was assessed 3.5 hours after challenge.

Molecule: superoxide dismutase
- cytochrome c reduction by PMA and fMLP-stimulated neutrophils [1]: completely blocked

Molecule: O=P1(N(CCCl)CCCl)NCCCO1 (stereo not drawn) [cyclophosphamide]
- circulating lymphocytes and neutrophils ([2]; comparator agents): depletes both circulating lymphocytes and neutrophils

Molecule: CCCCCCCCCCCCCCCCOCC(COP(=O)([O-])OCC[N+](C)(C)C)OC(C)=O (stereo not drawn) [PAF]
- increase in neutrophil adhesion to postcapillary venules [3]: approximately 6 fold

Molecule: CC(=O)Oc1ccccc1C(=O)O [aspirin, Acetylsalicylic acid]
- inhibition of edema [4]: inhibited

Molecule: C[C@H]1C[C@@H]2[C@H]([C@@H](O)C[C@@]3(C)[C@H]2CC[C@]3(O)C(=O)CO)[C@@]2(C)C=CC(=O)C=C12 [methylprednisolone]
- lymphocyte/neutrophil ratio ([2]; rat, in vivo): analogous to that seen with MAIF

Molecule: OC[C@H]1O[C@@H](O[C@H]2[C@H](O)[C@@H](O)C(O)O[C@@H]2CO)[C@H](O)[C@@H](O)[C@H]1O (stereo partly drawn) [Lactose]
- suppression of neutrophil accumulation and hemorrhage [5]: modest and marginally significant suppression
- Haemorrhage: μl of RBC ([5]; 3.5 hours after challenge): 3.0 ± 1.5 μl of RBC
- Neutrophil accumulation: Units of MPO ([5]; 3.5 hours after challenge): 0.214 ± .176 Units of MPO
- μl of Edema ([5]; 3.5 hours after challenge): 104 ± 23 µL
